Patent US9181222B2, “Protein kinase C inhibitors and uses thereof” (Rigel Pharmaceuticals, Inc., priority 2010, dated 2015)

Test system: Human primary T cells
Assay: IL-2 ELISA, Human Primary T Cell, Anti-CD3+CD28+ (Whole Cell Assay)
Format: cell-based
Details: IL-2 by ELISA, human primary T cells pre-incubated with compound 1 hr, stimulated with αCD3 and αCD28, 24 hours
Description: IL-2 ELISA, Human Primary T Cell, Anti-CD3+CD28+ (Whole Cell Assay)
Human primary T cell isolation and culture: Human primary T cells were prepared as follows. Whole blood was obtained from a healthy volunteer, mixed 1:1 with PBS, layered on to Ficoll Hypaque (Amersham Pharmacia Biotech, Piscataway, N.J., Catalog #17-1440-03) in 2:1 blood/PBS:ficoll ratio and centrifuged for 30 min at 4° C. at 1750 rpm. The cells at the serum: ficoll interface were recovered and washed twice with 5 volumes of PBS. These freshly isolated human peripheral blood mononuclear cells were cultured in Yssel's medium containing 40 U/mL IL2 in a flask pre-coated with 1 μg/mL αCD3 and 5 μg/mL αCD28 (Anti-Human CD3, BD Pharmingen Catalog #555336, Anti-Human CD28, Beckman Coulter Catalog #1M1376). The cells were stimulated for 3-4 days, then transferred to a fresh flask and maintained in RPMI (RPMI-1640 with L-Glutamine; Mediatech, Inc., Herndon Va., cat. #10-040-CM) with 10% FBS and 40 U/mL IL-2. The primary T-cells were then washed twice with PBS to remove the IL-2.
Primary T cell stimulation and IL2 ELISA: Human primary T cells (100,000 cells per well) were pre-incubated with or without test compound in Yssel's medium for 1 hr at 37° C. Cells were then stimulated by transferring them to round-bottom 96-well plates pre-coated with 1 μg/ml αCD3 and 5 μg/ml αCD28. For counter assay, cells were instead stimulated by adding 8× stock solutions of PMA and ionomycin in Yssels (for final concentrations of 0.5 ng/ml PMA and 0.1 μM ionomycin, both from Calbiochem). Cells were incubated at 37° C. for 24 hours before 100 μL supernatants were harvested for quantification of IL-2 by ELISA using Human IL-2 Duoset ELISA Kit from R and D Systems, Cat. # DY202E.

CC1(C)CC(Nc2nc(Nc3cc(-n4cnnn4)c(C4CC4)cc3F)ncc2C#N)CC(C)(C)N1 [Compound I-2, 2-(4-Cyclopropyl-2-fluoro-5-tetrazol-1-yl-phenylamino)-4-(2,2,6,6-tetramethyl-piperidin-4-ylamino)-pyrimidine-5-carbonitrile]
IC50: < 250 nM

CC1(C)CC(Nc2nc(Nc3cc(-n4cnnn4)c(C4CC4)cc3F)ncc2C(N)=O)CC(C)(C)N1 [Compound I-3, 2-(4-Cyclopropyl-2-fluoro-5-tetrazol-1-yl-phenylamino)-4-(2,2,6,6-tetramethyl-piperidin-4-ylamino)-pyrimidine-5-carboxylic acid amide]
IC50: 500 to 1000 nM

CC1(C)CC(Nc2nc(Nc3cc(F)c(C4CC4)c(-n4cnnn4)c3)ncc2C#N)CC(C)(C)N1 [Compound I-4, 2-(4-Cyclopropyl-3-fluoro-5-tetrazol-1-yl-phenylamino)-4-(2,2,6,6-tetramethyl-piperidin-4-ylamino)-pyrimidine-5-carbonitrile]
IC50: < 250 nM

CC1(C)CC(Nc2nc(Nc3cc(F)c(C4CC4)c(-n4cnnn4)c3)ncc2F)CC(C)(C)N1 [Compound I-5, N2-(4-Cyclopropyl-3-fluoro-5-tetrazol-1-yl-phenyl)-5-fluoro-N4-(2,2,6,6-tetramethyl-piperidin-4-yl)-pyrimidine-2,4-diamine]
IC50: < 250 nM

CC1(C)CC(Nc2nc(Nc3cc(C4CC4)c(F)c(-n4cnnn4)c3)ncc2C#N)CC(C)(C)N1 [Compound I-6, 2-(3-Cyclopropyl-4-fluoro-5-tetrazol-1-yl-phenylamino)-4-(2,2,6,6-tetramethyl-piperidin-4-ylamino)-pyrimidine-5-carbonitrile]
IC50: < 250 nM

CC1(C)CC(Nc2nc(Nc3cc(C4CC4)c(F)c(-n4cnnn4)c3)ncc2F)CC(C)(C)N1 [Compound I-7, N2-(3-Cyclopropyl-4-fluoro-5-tetrazol-1-yl-phenyl)-5-fluoro-N4-(2,2,6,6-tetramethyl-piperidin-4-yl)-pyrimidine-2,4-diamine]
IC50: < 250 nM

CC(C)c1cc(F)c(Nc2ncc(C#N)c(NC3CC(C)(C)NC(C)(C)C3)n2)cc1-n1cnnn1 [Compound I-8, 2-(2-Fluoro-4-isopropyl-5-tetrazol-1-yl-phenylamino)-4-(2,2,6,6-tetramethyl-piperidin-4-ylamino)-pyrimidine-5-carbonitrile]
IC50: < 250 nM

CC(C)c1ccc(Nc2ncc(F)c(NC3CC(C)(C)NC(C)(C)C3)n2)cc1-n1cnnn1 [Compound I-9, 5-Fluoro-N2-(4-isopropyl-3-tetrazol-1-yl-phenyl)-N4-(2,2,6,6-tetramethyl-piperidin-4-yl)-pyrimidine-2,4-diamine]
IC50: < 250 nM

CC(C)c1ccc(Nc2ncc(C(N)=O)c(NC3CC(C)(C)NC(C)(C)C3)n2)cc1-n1cnnn1 [Compound I-10, 2-(4-Isopropyl-3-tetrazol-1-yl-phenylamino)-4-(2,2,6,6-tetramethyl-piperidin-4-ylamino)-pyrimidine-5-carboxylic acid amide]
IC50: 250 to 500 nM

CC(C)c1ccc(Nc2ncc(C#N)c(NC3CC(C)(C)NC(C)(C)C3)n2)cc1-n1cnnn1 [Compound I-11, 2-(4-Isopropyl-3-tetrazol-1-yl-phenylamino)-4-(2,2,6,6-tetramethyl-piperidin-4-ylamino)-pyrimidine-5-carbonitrile]
IC50: < 250 nM

CC1(C)CC(Nc2nc(Nc3cc(-n4cnnn4)c(C4CC4)cc3F)ncc2F)CC(C)(C)N1 [Compound I-12, N2-(4-Cyclopropyl-2-fluoro-5-tetrazol-1-yl-phenyl)-5-fluoro-N4-(2,2,6,6-tetramethyl-piperidin-4-yl)-pyrimidine-2,4-diamine]
IC50: < 250 nM

CC1(C)CC(Nc2nc(Nc3cc(-n4cnnn4)ccc3F)ncc2F)CC(C)(C)N1 [Compound I-13, 5-Fluoro-N2-(2-fluoro-5-tetrazol-1-yl-phenyl)-N4-(2,2,6,6-tetramethyl-piperidin-4-yl)-pyrimidine-2,4-diamine]
IC50: < 250 nM

CN1C(C)(C)CC(Nc2nc(Nc3cc(-n4cnnn4)ccc3F)ncc2F)CC1(C)C [Compound I-14, 5-Fluoro-N2-(2-fluoro-5-tetrazol-1-yl-phenyl)-N4-(1,2,2,6,6-pentamethyl-piperidin-4-yl)-pyrimidine-2,4-diamine]
IC50: < 250 nM

CC1(C)CC(Nc2nc(Nc3ccc(C4CC4)c(-n4nnnc4C(F)(F)F)c3)ncc2F)CC(C)(C)N1 [Compound I-15, N2-[4-Cyclopropyl-3-(5-trifluoromethyl-tetrazol-1-yl)-phenyl]-5-fluoro-N4-(2,2,6,6-tetramethyl-piperidin-4-yl)-pyrimidine-2,4-diamine]
IC50: < 250 nM

CC(C)c1nnnn1-c1cc(Nc2ncc(F)c(NC3CC(C)(C)NC(C)(C)C3)n2)c(F)cc1C1CC1 [Compound I-16, N2-(4-cyclopropyl-2-fluoro-5-(5-isopropyl-1H-tetrazol-1-yl)phenyl)-5-fluoro-N4-(2,2,6,6-tetramethylpiperidin-4-yl)pyrimidine-2,4-diamine]
IC50: < 250 nM

CC1(C)CC(Nc2nc(Nc3cc(-n4nnnc4C4CC4)c(C4CC4)cc3F)ncc2F)CC(C)(C)N1 [Compound I-17, N2-(4-cyclopropyl-5-(5-cyclopropyl-1H-tetrazol-1-yl)-2-fluorophenyl)-5-fluoro-N4-(2,2,6,6-tetramethylpiperidin-4-yl)pyrimidine-2,4-diamine]
IC50: < 250 nM

Cc1nnnn1-c1cc(Nc2ncc(F)c(NC3CC(C)(C)NC(C)(C)C3)n2)c(F)cc1C1CC1 [Compound I-18, N2-(4-cyclopropyl-2-fluoro-5-(5-methyl-1H-tetrazol-1-yl)phenyl)-5-fluoro-N4-(2,2,6,6-tetramethylpiperidin-4-yl)pyrimidine-2,4-diamine]
IC50: < 250 nM

CC1(C)CC(Nc2nc(Nc3cc(-n4nnnc4C(F)(F)F)c(C4CC4)cc3F)ncc2F)CC(C)(C)N1 [Compound I-19, N2-(4-cyclopropyl-2-fluoro-5-(5-(trifluoromethyl)-1H-tetrazol-1-yl)phenyl)-5-fluoro-N4-(2,2,6,6-tetramethylpiperidin-4-yl)pyrimidine-2,4-diamine]
IC50: < 250 nM

CC1(C)CC(Nc2nc(Nc3cc(-n4nnnc4CF)c(C4CC4)cc3F)ncc2F)CC(C)(C)N1 [Compound I-20, N2-(4-cyclopropyl-2-fluoro-5-(5-(fluoromethyl)-1H-tetrazol-1-yl)phenyl)-5-fluoro-N4-(2,2,6,6-tetramethylpiperidin-4-yl)pyrimidine-2,4-diamine]
IC50: < 250 nM
